How the values were obtained:
[1] = tested on: stem cell derived beta cells; experiment: Stability of beta cell identity in long-term culture after removal of compound at day 27; assay type: cell-based, human
Protocol: (§1) The beta cell clusters were dissociated using TrypLE™ Express into single cells. Cells were fixed with 4% PFA for 10 min and followed by permeabilization at −20° C. with cold methanol for 10 min. Primary antibodies were added at a dilution of 1:100 in autoMACs Rinsing Solution (Cat. No. 130-091-222, Miltenyi Biotec) containing 0.5% BSA at 4° C. for 1 hour. Secondary antibodies were added at a dilution of 1:500 at room temperature for 1 hour. The cells were filtered with BD Falcon 12×75 mm tube with cell strainer cap (Cat. No. 352235, BD) and subsequently analyzed by flow cytometer. Data were analyzed using Flowjo software. Negative controls were performed by only adding secondary antibodies.
With APH, a high proportion of cells in the islet-like clusters were positive for C-peptide and NKX6.1, a transcription factor for maintaining the beta cell identity and functional maturation (Schaffer et al., 2013). […] Beta cells were cultured for additional 7 days until about day 34 and 30 days until about day 60 upon removal of these compounds at day 27. […] In contrast, in APH treated cells, there was no decrease in C-peptide or NKX6.1 on day 34 (FIG. 5A). […] After further culturing of the cells for extra 30 days, very few of cells in control group remained GFP expression and were positive for C-peptide.
The ability of other DNA replication inhibitors to stabilize the beta cell identity was investigated. The expressions of GFP were maintained after releasing cells from these inhibitors for 7 days until day 34. With additional 30 days of culture, the expressions of GFP were reduced in all conditions at certain levels, but the cells treated with Cis and Eto expressed higher GFP than the cells treated with APH compared to the other conditions (FIG. 5E, FIG. 5F).

[2] = tested on: pancreatic progenitors and beta cells; experiment: Cell cycle progression profiling by flow cytometry (Edu incubation, Hoechst DNA content, KI67); assay type: cell-based, human
Protocol: as §1
To investigate the mechanism underlying the increased purity of stem cell-derived C-peptide positive cells induced by APH, cell proliferation, apoptosis and differentiation efficiency were examined during differentiation. The cell cycle progression was profiled at day 15, day 18, day 20 and day 27 of beta cell differentiation. In untreated cells, C-peptide positive cells started to form from day 15 (about 5%) (FIG. 2A) and reached a peak at day 20 (about 46%) (FIG. 2B). About 2% of total cells underwent proliferation during 2 hours of Edu incubation at each stage before day 20 and very few C-peptide positive cells were labeled positive for Edu (FIG. 2B). At day 27, the percentage of proliferating cells increased to about 13% and the percentage of C-peptide positive cells decreased due to proliferation of non-C-peptide cells in the clusters (FIG. 2B). When APH was added from day 15 to day 27, the number of C-peptide positive cells was increased as early as day 18, 3 days after addition of APH (FIG. 2C). At day 20, about 60% cells expressed C-peptide and the high expression of C-peptide was maintained until the day 27.
To determine the cell cycle phase at which aphidicolin arrested pancreatic progenitors and beta cells, flow cytometry combined with Hoechst staining for DNA content and EdU labeling was performed.
By the end of day 27, 30% of control cells were in cell cycle through G1 to M phase indicated by the expression of KI67 (a proliferation marker expressed in the cells within cell cycle) and amount of DNA content (FIG. 3A). […] The cell cycle gene expression in insulin expressing cells was also examined.

C[C@@]1(CO)[C@H](O)CC[C@@]2(C)[C@H]1CC[C@H]1C[C@@H]3C[C@@]12CC[C@]3(O)CO [APH, Aphidicolin]
percentage of C-peptide positive cells, and C-peptide and NKX6.1 double positive cells, relative to day 27 before releasing ([1]; after 7 days of releasing cells from APH (day 34)): comparable
C-peptide or NKX6.1 ([1]; day 34, APH removed on day 27): no decrease
number of GFP and C-peptide positive cells compared to day 27 before removal ([1]; day 60): decreased
percentage of C-peptide positive cells ([1]; day 60, APH treatment days 15-27): about 34%
number of C-peptide positive cells ([2]; day 18, 3 days after addition of APH (added day 15 to day 27)): increased
cells expressing C-peptide ([2]; day 20, APH added from day 15): about 60%
cell cycle phase of arrest ([2]; end of day 27): arrested in G1 phase
cells in cell cycle (KI67) ([2]; end of day 27): About 5%
high expression of C-peptide ([2]; until day 27, APH added day 15 to day 27): maintained
proliferating cells (Edu) ([2]; whole duration of differentiation, APH day 15 to day 27): Very few cells, if any

— patent publication US12605407B2, “Methods to induce terminal differentiation in stem cells by interfering with DNA replication, methods of inducing pancreatic differentiation, and differentiated cells obtained thereof” (priority 2018, dated 2026)
